Assay results from ChEMBL document CHEMBL5465560, “Selectivity Literature for EUbOPEN Chemogenomic Library” (2024).

Legend:
[1] = molecular target: T1, Serine/threonine-protein kinase BRSK2 (Homo sapiens) (UniProt Q8IWQ3); assay: Selectivity interaction (KinomeScan (DiscoverX)) EUB0000655a BRSK2; conditions: at 10 µM
T1 sequence (whole entry): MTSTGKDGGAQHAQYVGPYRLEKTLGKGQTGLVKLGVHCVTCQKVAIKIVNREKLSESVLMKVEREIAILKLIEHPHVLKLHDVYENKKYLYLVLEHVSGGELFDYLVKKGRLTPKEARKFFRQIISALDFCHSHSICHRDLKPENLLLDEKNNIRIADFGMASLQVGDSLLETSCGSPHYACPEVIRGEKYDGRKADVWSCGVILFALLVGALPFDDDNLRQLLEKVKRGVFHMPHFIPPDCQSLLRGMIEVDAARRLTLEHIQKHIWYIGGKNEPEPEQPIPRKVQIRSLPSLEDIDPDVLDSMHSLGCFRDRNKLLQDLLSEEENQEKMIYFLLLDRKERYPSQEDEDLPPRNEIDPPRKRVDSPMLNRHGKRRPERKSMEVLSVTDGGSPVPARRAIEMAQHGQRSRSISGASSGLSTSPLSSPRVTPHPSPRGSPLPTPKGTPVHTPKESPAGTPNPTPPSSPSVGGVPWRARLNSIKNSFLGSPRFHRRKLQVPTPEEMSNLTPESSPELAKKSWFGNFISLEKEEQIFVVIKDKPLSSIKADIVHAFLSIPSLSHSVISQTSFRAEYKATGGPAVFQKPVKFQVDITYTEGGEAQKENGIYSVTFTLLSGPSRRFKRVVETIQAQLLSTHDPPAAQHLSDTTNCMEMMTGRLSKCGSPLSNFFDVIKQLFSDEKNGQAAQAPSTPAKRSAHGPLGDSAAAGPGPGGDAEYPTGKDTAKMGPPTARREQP

[2] = molecular target: Serine/threonine-protein kinase Nek7 (Homo sapiens) (UniProt Q8TDX7); assay: Selectivity interaction (KinomeScan (DiscoverX)) EUB0001079a NEK7; conditions: at 1 µM
[3] = molecular target: T2, Dual specificity mitogen-activated protein kinase kinase 7 (Homo sapiens) (UniProt O14733); assay: Selectivity interaction (KinomeScan (DiscoverX)) EUB0000666a MAP2K7; conditions: at 10 µM
T2 sequence (whole entry): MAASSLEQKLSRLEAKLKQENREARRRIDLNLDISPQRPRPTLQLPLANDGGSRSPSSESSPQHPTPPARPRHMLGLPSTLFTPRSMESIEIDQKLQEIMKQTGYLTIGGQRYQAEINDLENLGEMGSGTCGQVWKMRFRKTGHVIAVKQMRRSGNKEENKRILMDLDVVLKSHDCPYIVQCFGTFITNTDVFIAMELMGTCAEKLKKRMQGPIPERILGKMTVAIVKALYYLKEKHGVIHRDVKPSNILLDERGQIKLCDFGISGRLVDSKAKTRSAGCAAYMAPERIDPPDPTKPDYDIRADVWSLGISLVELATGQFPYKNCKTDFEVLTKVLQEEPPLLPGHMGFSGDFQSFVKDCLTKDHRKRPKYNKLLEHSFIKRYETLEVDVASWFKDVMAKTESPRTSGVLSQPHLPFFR

[4] = molecular target: Ribosomal protein S6 kinase alpha-2 (Homo sapiens) (UniProt Q15349); assay: Selectivity interaction (KinomeScan (DiscoverX)) EUB0000666a RPS6KA2; conditions: at 10 µM
[5] = molecular target: Serine/threonine-protein kinase Chk2 (Homo sapiens) (UniProt O96017); conditions: at 10 µM
[6] = molecular target: RAF proto-oncogene serine/threonine-protein kinase (Homo sapiens) (UniProt P04049); assay: Selectivity interaction (KinomeScan (DiscoverX)) EUB0001049a RAF1; conditions: at 1 µM
[7] = molecular target: Beta-2 adrenergic receptor (Homo sapiens, UniProt P07550); assay: Selectivity interaction (Panel of non-epigenetic targets (kinases, GPCRs, ion channels, and transporters, Eurofins) ) EUB0000271b ADRB2; conditions: at 1 µM
[8] = molecular target: Tyrosine-protein kinase Fyn (Homo sapiens) (UniProt P06241); assay: Selectivity interaction (KinomeScan (DiscoverX)) EUB0000695a FYN; conditions: at 100 nM
[9] = molecular target: T3, Serine/threonine-protein kinase MAK (Homo sapiens) (UniProt P20794); assay: Selectivity interaction (KinomeScan (DiscoverX)) EUB0000595a MAK; conditions: at 10 µM
T3 sequence (whole entry): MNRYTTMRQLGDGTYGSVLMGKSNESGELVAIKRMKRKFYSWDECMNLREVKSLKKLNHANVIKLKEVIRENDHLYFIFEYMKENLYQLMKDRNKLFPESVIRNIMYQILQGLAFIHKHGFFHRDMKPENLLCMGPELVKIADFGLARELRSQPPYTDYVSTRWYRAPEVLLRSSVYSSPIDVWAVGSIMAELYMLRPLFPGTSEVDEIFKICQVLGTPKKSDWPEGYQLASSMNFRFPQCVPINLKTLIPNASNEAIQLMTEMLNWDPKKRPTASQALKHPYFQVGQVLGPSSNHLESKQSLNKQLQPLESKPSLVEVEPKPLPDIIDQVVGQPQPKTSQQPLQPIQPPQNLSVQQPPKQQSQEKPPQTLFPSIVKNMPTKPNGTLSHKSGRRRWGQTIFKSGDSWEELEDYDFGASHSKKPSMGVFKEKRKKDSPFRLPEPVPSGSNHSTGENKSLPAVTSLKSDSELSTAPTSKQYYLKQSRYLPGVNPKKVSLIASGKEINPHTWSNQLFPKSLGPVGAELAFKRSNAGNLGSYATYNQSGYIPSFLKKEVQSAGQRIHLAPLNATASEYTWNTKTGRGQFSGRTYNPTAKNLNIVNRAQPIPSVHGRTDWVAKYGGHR

[10] = molecular target: Ribosomal protein S6 kinase alpha-4 (Homo sapiens) (UniProt O75676); assay: Selectivity interaction (KinomeScan (DiscoverX)) EUB0000618a RPS6KA4; conditions: at 10 µM
[11] = molecular target: Beta-1 adrenergic receptor (Homo sapiens, UniProt P08588); assay: Selectivity interaction (Eurofins CEREP Diversity Profile (receptors and ion channels)) EUB0000279b ADRB1; conditions: at 10 µM
[12] = molecular target: Serine/threonine-protein kinase Nek7 (Homo sapiens) (UniProt Q8TDX7); assay: Selectivity interaction (Ambit KINOMEscan and KiNATiv profiling in Jurkat cells) EUB0000090b NEK7; type: cell-based; conditions: at 1 µM
[13] = test system: Epidermal growth factor receptor (Homo sapiens), P00533 [G719C]; assay: (§1) Selectivity interaction (KinomeScan (DiscoverX)) EUB0001619a EGFR; conditions: at 1 µM
[14] = test system: Epidermal growth factor receptor (Homo sapiens), P00533 [G719S]; assay: as §1; conditions: at 1 µM
[15] = test system: Epidermal growth factor receptor (Homo sapiens), P00533 [L858R,T790M]; assay: as §1; conditions: at 1 µM
[16] = test system: Epidermal growth factor receptor (Homo sapiens), P00533 [L858R]; assay: as §1; conditions: at 1 µM
[17] = test system: Epidermal growth factor receptor (Homo sapiens), P00533 [L861Q]; assay: as §1; conditions: at 1 µM
[18] = test system: Epidermal growth factor receptor (Homo sapiens), P00533 [T790M]; assay: as §1; conditions: at 1 µM
[19] = test system: Epidermal growth factor receptor (Homo sapiens), P00533 [UNDEFINED MUTATION]; assay: as §1; conditions: at 1 µM
[20] = molecular target: Epidermal growth factor receptor (Homo sapiens, UniProt P00533); assay: as §1; conditions: at 1 µM
[21] = molecular target: Receptor-type tyrosine-protein kinase FLT3 (Homo sapiens) (UniProt P36888); assay: Selectivity interaction (KinomeScan (DiscoverX)) EUB0001619a FLT3; conditions: at 1 µM

Serine/threonine-protein kinase Nek7 (Homo sapiens), sequence (Q8TDX7 whole entry, looked up): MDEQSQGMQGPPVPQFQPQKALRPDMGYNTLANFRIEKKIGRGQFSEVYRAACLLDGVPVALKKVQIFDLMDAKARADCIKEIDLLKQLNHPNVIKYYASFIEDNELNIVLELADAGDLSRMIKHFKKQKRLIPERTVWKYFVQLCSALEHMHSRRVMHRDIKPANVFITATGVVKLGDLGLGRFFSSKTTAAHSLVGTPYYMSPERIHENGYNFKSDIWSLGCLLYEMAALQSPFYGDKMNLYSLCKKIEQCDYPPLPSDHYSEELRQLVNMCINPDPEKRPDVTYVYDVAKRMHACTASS
Tyrosine-protein kinase Fyn (Homo sapiens), sequence (P06241 2-537 limits assumed): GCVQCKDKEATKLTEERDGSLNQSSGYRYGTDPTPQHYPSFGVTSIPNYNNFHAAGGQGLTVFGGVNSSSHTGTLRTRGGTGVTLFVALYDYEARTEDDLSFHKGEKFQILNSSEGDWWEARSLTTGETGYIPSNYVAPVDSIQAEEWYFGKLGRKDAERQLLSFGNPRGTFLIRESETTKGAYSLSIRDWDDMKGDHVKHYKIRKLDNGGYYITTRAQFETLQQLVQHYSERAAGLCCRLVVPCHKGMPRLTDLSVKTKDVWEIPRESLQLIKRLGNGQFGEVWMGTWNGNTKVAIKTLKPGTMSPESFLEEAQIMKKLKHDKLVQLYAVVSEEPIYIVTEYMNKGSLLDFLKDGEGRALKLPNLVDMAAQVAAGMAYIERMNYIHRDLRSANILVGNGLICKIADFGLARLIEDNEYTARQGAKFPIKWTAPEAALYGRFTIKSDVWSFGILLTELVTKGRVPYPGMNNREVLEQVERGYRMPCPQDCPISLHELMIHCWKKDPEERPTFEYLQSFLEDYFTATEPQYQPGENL
Epidermal growth factor receptor (Homo sapiens), P00533 [G719C], sequence (P00533 whole entry G719C): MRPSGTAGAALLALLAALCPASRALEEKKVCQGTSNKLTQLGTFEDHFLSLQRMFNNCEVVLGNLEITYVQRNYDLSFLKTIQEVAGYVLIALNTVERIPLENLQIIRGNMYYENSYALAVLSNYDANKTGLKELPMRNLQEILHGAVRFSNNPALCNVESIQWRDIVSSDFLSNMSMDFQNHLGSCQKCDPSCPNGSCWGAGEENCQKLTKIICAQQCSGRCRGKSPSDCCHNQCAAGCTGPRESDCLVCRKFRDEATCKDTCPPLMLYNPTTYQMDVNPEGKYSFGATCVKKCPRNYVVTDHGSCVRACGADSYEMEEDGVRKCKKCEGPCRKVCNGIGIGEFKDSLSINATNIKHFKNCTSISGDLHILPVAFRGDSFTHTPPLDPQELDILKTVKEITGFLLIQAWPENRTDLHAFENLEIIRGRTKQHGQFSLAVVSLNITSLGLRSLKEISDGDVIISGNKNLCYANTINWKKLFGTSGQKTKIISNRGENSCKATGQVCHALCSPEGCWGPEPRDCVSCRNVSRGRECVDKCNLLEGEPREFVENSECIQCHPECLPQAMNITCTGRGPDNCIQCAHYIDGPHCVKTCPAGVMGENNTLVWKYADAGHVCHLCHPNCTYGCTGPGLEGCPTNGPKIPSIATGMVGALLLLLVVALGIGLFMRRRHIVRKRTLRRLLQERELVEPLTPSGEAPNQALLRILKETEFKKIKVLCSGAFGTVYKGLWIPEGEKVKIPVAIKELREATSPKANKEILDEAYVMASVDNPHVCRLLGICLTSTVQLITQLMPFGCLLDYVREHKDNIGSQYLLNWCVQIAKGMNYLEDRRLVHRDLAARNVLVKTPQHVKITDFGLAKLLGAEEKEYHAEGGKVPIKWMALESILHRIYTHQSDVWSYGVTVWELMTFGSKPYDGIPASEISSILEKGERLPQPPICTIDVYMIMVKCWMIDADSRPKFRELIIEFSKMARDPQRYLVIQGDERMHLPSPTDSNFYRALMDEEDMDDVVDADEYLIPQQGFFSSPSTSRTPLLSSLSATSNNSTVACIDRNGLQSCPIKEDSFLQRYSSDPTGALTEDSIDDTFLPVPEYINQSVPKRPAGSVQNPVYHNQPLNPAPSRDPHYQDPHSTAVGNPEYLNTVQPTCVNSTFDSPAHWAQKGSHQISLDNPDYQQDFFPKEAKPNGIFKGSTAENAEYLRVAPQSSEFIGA
Epidermal growth factor receptor (Homo sapiens), P00533 [G719S], sequence (P00533 whole entry G719S): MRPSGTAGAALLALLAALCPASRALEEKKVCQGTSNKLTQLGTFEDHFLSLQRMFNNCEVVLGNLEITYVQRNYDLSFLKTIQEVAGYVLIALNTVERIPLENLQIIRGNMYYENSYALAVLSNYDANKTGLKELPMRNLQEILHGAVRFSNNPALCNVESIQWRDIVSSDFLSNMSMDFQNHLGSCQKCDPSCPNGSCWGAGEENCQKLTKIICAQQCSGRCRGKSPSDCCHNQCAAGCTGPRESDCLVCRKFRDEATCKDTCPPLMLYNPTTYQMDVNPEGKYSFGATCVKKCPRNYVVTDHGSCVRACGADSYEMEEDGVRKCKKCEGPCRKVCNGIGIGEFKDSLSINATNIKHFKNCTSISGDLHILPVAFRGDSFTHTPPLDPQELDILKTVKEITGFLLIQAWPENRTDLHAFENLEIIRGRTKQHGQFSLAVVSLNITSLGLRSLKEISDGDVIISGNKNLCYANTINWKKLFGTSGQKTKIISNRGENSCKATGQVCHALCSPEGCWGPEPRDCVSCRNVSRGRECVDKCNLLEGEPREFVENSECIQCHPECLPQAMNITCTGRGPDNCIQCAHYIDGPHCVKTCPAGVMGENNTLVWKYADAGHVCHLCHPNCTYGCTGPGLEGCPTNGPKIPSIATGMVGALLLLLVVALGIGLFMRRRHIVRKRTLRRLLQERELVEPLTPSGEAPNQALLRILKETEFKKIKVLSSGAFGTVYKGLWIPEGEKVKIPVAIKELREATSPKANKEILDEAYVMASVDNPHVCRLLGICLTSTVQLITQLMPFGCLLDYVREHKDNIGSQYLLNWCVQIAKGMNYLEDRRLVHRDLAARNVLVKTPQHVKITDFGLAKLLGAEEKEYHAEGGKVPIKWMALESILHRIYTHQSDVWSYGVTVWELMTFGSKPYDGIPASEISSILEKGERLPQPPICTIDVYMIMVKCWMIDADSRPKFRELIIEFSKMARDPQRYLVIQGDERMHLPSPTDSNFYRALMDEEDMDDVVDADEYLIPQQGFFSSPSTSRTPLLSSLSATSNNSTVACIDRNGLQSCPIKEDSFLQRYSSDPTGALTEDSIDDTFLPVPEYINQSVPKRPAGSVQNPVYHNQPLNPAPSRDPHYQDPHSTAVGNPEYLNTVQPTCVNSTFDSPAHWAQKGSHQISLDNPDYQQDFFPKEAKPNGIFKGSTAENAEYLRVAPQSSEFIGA
Epidermal growth factor receptor (Homo sapiens), P00533 [T790M], sequence (P00533 whole entry T790M): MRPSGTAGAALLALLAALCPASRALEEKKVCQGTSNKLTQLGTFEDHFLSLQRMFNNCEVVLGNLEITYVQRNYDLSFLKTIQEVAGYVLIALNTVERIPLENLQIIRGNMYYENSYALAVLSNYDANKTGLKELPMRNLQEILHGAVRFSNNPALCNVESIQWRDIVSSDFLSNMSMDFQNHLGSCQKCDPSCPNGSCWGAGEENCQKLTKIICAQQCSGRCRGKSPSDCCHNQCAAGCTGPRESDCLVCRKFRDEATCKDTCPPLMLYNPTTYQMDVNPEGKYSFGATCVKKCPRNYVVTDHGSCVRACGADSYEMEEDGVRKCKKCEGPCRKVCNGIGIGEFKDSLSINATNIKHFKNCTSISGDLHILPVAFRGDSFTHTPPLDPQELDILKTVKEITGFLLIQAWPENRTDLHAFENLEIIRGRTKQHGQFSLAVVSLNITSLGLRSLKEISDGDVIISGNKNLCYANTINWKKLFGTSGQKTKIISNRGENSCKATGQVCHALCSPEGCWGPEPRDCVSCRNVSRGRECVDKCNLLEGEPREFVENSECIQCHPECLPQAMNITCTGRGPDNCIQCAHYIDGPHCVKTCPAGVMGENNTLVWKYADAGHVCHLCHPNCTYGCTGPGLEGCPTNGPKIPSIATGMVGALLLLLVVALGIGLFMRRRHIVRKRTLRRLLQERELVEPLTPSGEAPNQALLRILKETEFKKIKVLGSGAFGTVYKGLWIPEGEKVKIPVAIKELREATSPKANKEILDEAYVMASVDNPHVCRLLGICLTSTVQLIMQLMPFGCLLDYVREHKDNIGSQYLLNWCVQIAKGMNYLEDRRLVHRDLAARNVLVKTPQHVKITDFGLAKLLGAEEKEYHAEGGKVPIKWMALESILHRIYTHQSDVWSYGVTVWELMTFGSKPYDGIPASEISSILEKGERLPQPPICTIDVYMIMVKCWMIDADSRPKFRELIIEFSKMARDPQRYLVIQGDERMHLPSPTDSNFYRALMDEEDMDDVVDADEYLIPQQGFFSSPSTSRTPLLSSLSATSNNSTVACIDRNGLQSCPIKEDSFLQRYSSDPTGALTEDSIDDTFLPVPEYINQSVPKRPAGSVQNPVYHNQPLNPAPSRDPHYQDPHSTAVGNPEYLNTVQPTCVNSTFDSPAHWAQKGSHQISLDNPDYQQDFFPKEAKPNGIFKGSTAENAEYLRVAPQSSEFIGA
Beta-1 adrenergic receptor, sequence (P08588 whole entry, looked up): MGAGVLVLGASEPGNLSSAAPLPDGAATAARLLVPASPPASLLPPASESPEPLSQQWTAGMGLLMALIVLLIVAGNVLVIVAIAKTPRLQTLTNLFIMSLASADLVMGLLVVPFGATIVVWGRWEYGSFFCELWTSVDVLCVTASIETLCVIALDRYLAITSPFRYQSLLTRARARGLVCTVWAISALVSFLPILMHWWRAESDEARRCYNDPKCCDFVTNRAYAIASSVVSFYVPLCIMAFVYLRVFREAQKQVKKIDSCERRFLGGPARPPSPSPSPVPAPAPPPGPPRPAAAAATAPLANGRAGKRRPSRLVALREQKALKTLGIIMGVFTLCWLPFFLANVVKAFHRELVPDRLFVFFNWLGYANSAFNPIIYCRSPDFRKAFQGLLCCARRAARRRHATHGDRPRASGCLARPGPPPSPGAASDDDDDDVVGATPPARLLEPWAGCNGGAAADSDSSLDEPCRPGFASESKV

CN(C)CCOc1ccc(-c2nc(-c3ccncc3)c(-c3ccc4c(c3)CC/C4=N\O)[nH]2)cc1
% of control [1]: 88%

Nc1cnc(N2CCc3cc(S(=O)(=O)Nc4c(F)cc(Cl)cc4F)cc(N4CCCC4=O)c32)nc1 [TP-020n]
% of control [2]: 96%

O=C(NOC[C@H](O)CO)c1ccc(F)c(F)c1Nc1ccc(I)cc1F
% of control [3]: 100% | % of control [4]: 100%

Cc1cc([C@@H](C)Nc2ccccc2C(=O)O)c2nc(N3CCOCC3)cc(=O)n2c1 [AZD-6482]
% of control [5]: 100%

COc1cc(Nc2nc(C)cc(-c3cnn4nc(OC)ccc34)n2)cc(C(F)(F)F)c1
% of control [6]: 100%

Cc1cc(C)cc([C@@H]2c3cc(C)ccc3NC(=O)CN2C(=O)c2ccc(Br)s2)c1
% of inhibition [7]: -7%

Cc1cc(F)c(C(=O)Nc2cccc(-c3nncn3C(C)C)n2)cc1-n1cnc(C2CC2)c1
% of control [8]: 99%

COCC(=O)NC/C=C/c1ccc2ncnc(Nc3ccc(Oc4ccc(C)nc4)c(C)c3)c2c1 [CP-724714]
% of control [9]: 90%

O[C@H]1CC[C@H](Nc2ncc3nc(Nc4c(F)cc(F)cc4F)n([C@H]4CCOC4)c3n2)CC1
% of control [10]: 100%

CC(=O)c1cc(-c2ccccc2OCC2CC2)c2ncccn12
% of control [11]: 87%

CN(C)C/C=C/C(=O)Nc1ccc(C(=O)N2CCCC(Nc3ncc(Cl)c(-c4c[nH]c5ccccc45)n3)C2)cc1 (stereo unspecified)
% of control [12]: 91%

N#Cc1cccc(-c2c[nH]c3ncnc(N4CCOCC4)c23)c1
% of control [13]: 84% | % of control [14]: 100% | % of control [15]: 100% | % of control [16]: 78% | % of control [17]: 86% | % of control [18]: 81% | % of control [19]: 77% | % of control [20]: 100% | % of control [21]: 92%
